We go through 10 compounds from patent US20220341825A1, “CELL-COMPATIBLE TISSUE CLARIFYING COMPOSITION” (OSAKA UNIVERSITY, priority 2019, published 2022).

Marks after values point to notes of the source that are not given here.

For data set [1], the system named is collagen solution (sCMF, sonicated collagen microfiber). As to the kind of experiment: Transparentizing ability in collagen model system (transmittance at 600 nm). As to conditions: for transmittance: room temperature, 2 hours; for transparentizing ability: screening in collagen (sCMF) solution. The procedure: Since collagen is most abundant in biological tissue, a collagen solution was used as a model of the biological tissue to screen various compounds for their transparentizing ability. The outline of the screening experiment is as follows. Aqueous solutions of test compounds were added to multi-well plates containing aqueous solutions of sCMF (sonicated collagen microfiber) and allowed to stand at room temperature for a certain period of time, and subsequently, apparent transparency and transmittance at 600 nm were measured. 100 μL of 100 wt % AMP aqueous solution (refractive index: 1.43), 100 wt % CMP aqueous solution (refractive index: 1.42), 100 wt % TMP aqueous solution (refractive index: 1.41) or 25 wt % poly A aqueous solution (refractive index: 1.37) were added. The molecular weight of poly A was 100 to 500 kDa. Distilled water was added for a control. The resultant was allowed to stand at room temperature for 2 hours, and then the absorbance at 600 nm was measured with a plate reader (Synergy HTX). The obtained absorbance was substituted into an equation according to the Lambert-Beer formula to calculate the transmittance. 100 μL of 0.1 wt %, 0.5 wt %, 1 wt %, and 5 wt % sCMF aqueous solutions were placed in a 96-well plate, and 100 μL of 10 wt % (refractive index: 1.35), 25 wt % (refractive index: 1.38), 50 wt % (refractive index: 1.39), and 100 wt % (refractive index: 1.43) AMP aqueous solutions were added. After allowing the obtained samples to stand at room temperature for 2 hours, an absorbance at 600 nm was measured with a plate reader (Synergy HTX). The obtained absorbance was substituted into an equation according to the Lambert-Beer formula to calculate the transmittance.

In a further data set the test system is human skin fibroblasts. Description: Cell survival rate after transparentization treatment (trypan blue). The class given is cell-based. The procedure: The cell survival rates in the transparentization using AMP, ADP, ATP, CMP, TMP, fructose, glucose, trehalose, sucrose, antipyrine, RapiClear 1.52, and poly A were examined. 1.0×10^5 human skin fibroblasts were seeded in a 24-well plate and cultured in DMEM medium. The next day, after washing with PBS, 100 μL of 100 wt % AMP aqueous solution, 100 wt % ADP aqueous solution, 100 wt % ATP aqueous solution, 100 wt % CMP aqueous solution, 100 wt % TMP aqueous solution, 100 wt % fructose aqueous solution, 100 wt % glucose aqueous solution, 100 wt % trehalose aqueous solution, 100 wt % sucrose aqueous solution, 100 wt % antipyrine aqueous solution, RapiClear 1.52 aqueous solution, or 25 wt % poly A aqueous solution was added, and the resultant was incubated at 37° C. for 30 minutes. Distilled water was added for a control. After the incubation, 0.1% trypsin was directly added, and the resultant was incubated for 5 minutes. Cell dissociation was confirmed, 3 mL of DMEM medium was added, and then the resultant was collected into a 15-mL centrifuge tube, and centrifuged (1000 rpm, 5 minutes, 20° C.). The supernatant was aspirated and 100 μL of DMEM medium was added. 10 μL was separated from the resultant and placed in an Eppendorf tube, and 10 μL of trypan blue solution was added thereto. Then, 10 μL was separated and the number of cells was counted with an automated cell counter.

A short description of data set [2]: Refractive index of aqueous solutions. The data set is classed as physicochemical.
For data set [3], the system named is living three-dimensional tissue model. Description: Cell survival rate in living three-dimensional tissue model (trypan blue). The data set is classed as cell-based, human. The procedure: (§1) A transparentization was performed on a living three-dimensional tissue model. 60 wt % AMP was used as a transparentizing agent, and RapiClear 1.52 and 61 wt % fructose were used for comparison. The experimental procedure was the same as that of Example 4, except that the paraformaldehyde fixation described in step (6) was not performed.
Further after 30, 60, and 90 minutes of the transparentization treatment in the same experimental system as described above, the tissue was disintegrated with proteinase K and collagenase (1:1) and subjected to trypan blue staining to count the number of viable cells. […] The transparentization treatment with AMP had no significant effect on the cell survival rate (a cell survival rate of 92%). […] The cell survival rate was as high as 92% and 90% after the 30-minute and 60-minute transparentization treatments, respectively. It was confirmed that a significant number of cells survived even after the 90-minute transparentization treatment (a cell survival rate of 45%).

The test system of data set [4] is three-dimensional tissue model (human skin fibroblasts, human umbilical vein endothelial cells). Description: Transparentization test (1) on fixed three-dimensional tissue model. The class given is cell-based. To be noted: 100 wt % AMP, 37° C., 30 minutes; paraformaldehyde-fixed tissue. The procedure:
(1) A solution containing fibrinogen at a concentration of 2 mg/100 μL, CMF at a concentration of 6 mg/100 μL, and thrombin at a concentration of 1 unit/100 μL using DMEM was prepared.
(2) 1.0×10^5 of human skin fibroblasts, 5.0×10^4 of human umbilical vein endothelial cells, 18 μL of a mixed medium of DMEM and EGM-2, and 2 μL of a thrombin solution were placed in an Eppendorf tube to prepare a cell suspension.
(3) The fibrinogen solution prepared in (1) was combined with a CMF solution, and 40 μL from 200 μL in total of the resulting solution was taken out and added to the cell suspension prepared in (2).
(4) The cell suspension prepared in (3) was placed in a glass bottom dish to prepare a 30-μL drop.
(5) After the drop was incubated for 2 hours, 2 mL of a mixed medium of DMEM and EGM-2 was added.
(6) The drop was cultured at 37° C. for 1 week, washed with PBS, and then fixed with paraformaldehyde for 15 minutes.
(7) The fixed tissue was subjected to CD31 immunostaining and DAPI staining.
(8) A transparentization treatment was performed with 100 wt % AMP at 37° C. for 30 minutes.

The subject of data set [5] is living three-dimensional tissue model. Description: Transparentization test (2) on living three-dimensional tissue model, confocal observation. The data set is classed as cell-based, human. To be noted: 60 wt % AMP, 30 minutes. The procedure:
as §1
The upper part of FIG. 5 is images immediately before the treatment (0 minutes), in which the left panel is an image observed in a direction perpendicular to the dish, and the right panel is an image observed in a direction horizontal to the dish. The lower part of FIG. 5 is images immediately after the treatment (30 minutes), in which the left panel is an image observed in a direction perpendicular to the dish, and the right panel is an image observed in a direction horizontal to the dish. By the transparentization treatment with AMP, the central portion of the tissue was seen so that the deep part up to 200 μm could be observed.

[6] abbreviates: 600 nm, 100 wt % aqueous solution added to sCMF solution.
Where [7] appears, read: human skin fibroblasts, 100 wt % aqueous solutions (RapiClear 1.52 aqueous solution), 37° C., 30 minutes, n = 3.

For orientation: refractive index means the speed of light in vacuum divided by its phase velocity in the sample.

With `Nc1ccn([C@@H]2O[C@H](COP(=O)(O)O)[C@@H](O)[C@H]2O)c(=O)n1` [CMP, cytidine monophosphate], the transmittance in data set [1] (setting [6]) was found to be 45.2%. In data set [1], the transparentizing ability entry is “high transparentizing ability”. Further, in the data set on human skin fibroblasts (human, 30 min, 100 wt %), the “Survival rate (%)” value was found to be 53%. In data set [2] (100 wt % aqueous solution), this compound displayed a refractive index of 1.42.
Consider `OC[C@H]1O[C@H](O[C@H]2O[C@H](CO)[C@@H](O)[C@H](O)[C@H]2O)[C@H](O)[C@@H](O)[C@@H]1O` [Trehalose, trehalose, reference compound], for which the “Survival rate (%)” value in the data set with human skin fibroblasts (human, 30 min, 100 wt %) amounted to 25%.
For the compound `OC[C@H]1O[C@@](CO)(O[C@H]2O[C@H](CO)[C@@H](O)[C@H](O)[C@H]2O)[C@@H](O)[C@@H]1O` [Sucrose, sucrose, reference compound], in the data set with human skin fibroblasts (human, 30 min, 100 wt %), the “Survival rate (%)” value is given as 14%.
With poly A, the transmittance in data set [1] (600 nm, 25 wt % aqueous solution added to sCMF solution) came to 69.0%. Besides, in data set [1], the transparentizing ability result was “high transparentizing ability”. Moreover, the “effect on the survival rate (in words)” value in the data set on human skin fibroblasts is recorded as “little effect on the survival rate”. The same compound had a refractive index in data set [2] (25 wt % aqueous solution) of 1.37.
`Nc1ncnc2c1ncn2[C@@H]1O[C@H](COP(=O)(O)OP(=O)(O)O)[C@@H](O)[C@H]1O` [ADP, adenosine diphosphate]: in data set [1], the transparentizing ability entry is given as “high transparentizing ability”. Also, in the data set with human skin fibroblasts (human, 30 min, 100 wt %), the “Survival rate (%)” value is on record as 87* %.
As for `Cc1cn([C@@H]2O[C@H](COP(=O)(O)O)[C@@H](O)[C@H]2O)c(=O)[nH]c1=O` [TMP, 5-methyluridine monophosphate], the transmittance in data set [1] (setting [6]) was 31.6%. The transparentizing ability result in data set [1] is recorded as “high transparentizing ability”. Further, the “Survival rate (%)” value in the data set on human skin fibroblasts (human, 30 min, 100 wt %) came to 42%. In data set [2] (100 wt % aqueous solution), this compound yielded a refractive index of 1.41.
Compound `O=C(CO)[C@@H](O)[C@H](O)[C@H](O)CO` [Fructose, fructose, reference compound] had a cell survival rate in data set [3] (30 minutes of treatment, 60 wt % AMP, RapiClear 1.52, 61 wt % fructose) of 22%. In addition, the “Survival rate (%)” value with human skin fibroblasts (setting [7]) worked out at 6%.
Take `Nc1ncnc2c1ncn2[C@@H]1O[C@H](COP(=O)(O)O)[C@@H](O)[C@H]1O` [AMP, adenosine monophosphate]: in data set [4], the “transparentization of tissue (naked eye)” value is “completely transparentized”. The “observable depth of tissue” value in data set [5] is recorded as “up to 200 μm”. The “effect of AMP concentration on transmittance” value in data set [1] (10-100 wt % AMP, 0.1-5 wt % sCMF, 600 nm, 2 hours room temperature) is “as the AMP concentration was higher, the transmittance was higher”. The transmittance in data set [1] (setting [6]) is 75.6%. The transparentizing ability result in data set [1] is on record as “high transparentizing ability”. In addition, the cell survival rate in data set [3] (human, 30 min) stood at 92%; in data set [3] (human, 60 min, 60 wt %), 90%; in data set [3] (human, 90 min, 60 wt %) it was 45%. Also, the “Survival rate (%)” value with human skin fibroblasts (human, 30 min, 100 wt %) was 92* %. Further, the refractive index in data set [2] (10 wt % aqueous solution) came to 1.35; in data set [2] (25 wt % aqueous solution), 1.38; in data set [2] (50 wt % aqueous solution) it was 1.39; in data set [2] (100 wt % aqueous solution), 1.43.
Regarding `Nc1ncnc2c1ncn2[C@@H]1O[C@H](COP(=O)(O)OP(=O)(O)OP(=O)(O)O)[C@@H](O)[C@H]1O` [ATP, adenosine triphosphate], the transparentizing ability entry in data set [1] is reported as “high transparentizing ability”. For the same compound, the “cell survival rate (in words)” value in the data set with human skin fibroblasts (ATP transparentization treatment) was “low”. The “Survival rate (%)” value with human skin fibroblasts (setting [7]) was 26%.
On to `Cc1cc(=O)n(-c2ccccc2)n1C` [Antipyrine, antipyrine, reference compound], for which, in the data set on human skin fibroblasts (setting [7]), the “Survival rate (%)” value turned out to be 33%.
